This is an account of results in DBAASP.

Test systems include Escherichia coli; Bacillus subtilis C626; Escherichia coli O157:H7; Escherichia coli D31; Escherichia coli NIHJ.
Common to all, as to experiment: ≥ marks a high value that may be exact or a test limit, other limits are often not marked, values filed in µg/mL are converted to µM
Assay [1] relates to Pseudomonas aeruginosa ATCC 27853.
For assay [2], the system named is Shigella flexneri ATCC 12022.
Assay [3] deals with Escherichia coli ATCC 35218.
Assay [4] relates to Salmonella typhimurium SL1344.
Assay [5] concerns Klebsiella pneumoniae XJ75297.
In assay [6] the test system is Staphylococcus aureus ATCC 29213.
Assay [7] has as its system Escherichia coli ATCC 25922.
The test system of assay [8] is Pseudomonas aeruginosa XJ75315.
The subject of assay [9] is Staphylococcus epidermidis.
For assay [10], the system named is Acinetobacter baumannii ATCC 17978.
The subject of assay [11] is Staphylococcus aureus C622.
The test system of assay [12] is Staphylococcus aureus CCT 2580.
Assay [13] has as its system Bacillus cereus ATCC 11778.
The subject of assay [14] is Escherichia coli CCT 1457.
For assay [15], the system named is Pseudomonas aeruginosa ATCC 15422.
For assay [16], the system named is Pseudomonas aeruginosa PAO1.
Assay [17] relates to Acinetobacter johnsonii NCDC 0072.
Assay [18] deals with Salmonella enterica subsp. enterica serovar Typhimurium ATCC 14028.
For assay [19], the system named is Listeria monocytogenes ATCC 19111.
In assay [20] the test system is Bacillus subtilis ATCC 6051.
The test system of assay [21] is Escherichia coli MTCC 0723.
Assay [22] relates to Staphylococcus aureus NCDC 0111.
For assay [23], the system named is Bacillus cereus NCDC 0240.
Assay [24] deals with Salmonella enterica subsp. enterica serovar Typhimurium ATCC 700931.
Assay [25] concerns Staphylococcus aureus ATCC 35556.
Assay [26] deals with Klebsiella pneumoniae ATCC 700603.
In assay [27] the test system is Pseudomonas aeruginosa NCDC 0105.
For assay [28], the system named is Acinetobacter baumannii ATCC 19606.
Assay [29] relates to Staphylococcus aureus 209P.
The subject of assay [30] is Streptococcus pyogenes COOK.
The test system of assay [31] is Bacillus subtilis ATCC 6633.
Assay [32] relates to Micrococcus luteus ATCC 9341.
The test system of assay [33] is Pectobacterium carotovorum.

In brackets after ≈: the same amount, converted by molar mass. A value given as a limit tells only on which side of the number the result lay.

Usually MIC stands for the least concentration at which growth counts as inhibited. High values mean weaker potency, low ones greater potency.

`CC[C@H](C)[C@H](NC(=O)[C@@H](NC(=O)[C@@H]1CCCN1C(=O)[C@@H](NC(=O)[C@@H]1CCCN1C(=O)[C@H](CCCCN)NC(=O)[C@H](CCCCN)NC(=O)[C@H](CO)NC(=O)CN)C(C)C)[C@@H](C)CC)C(=O)N[C@@H](Cc1ccc(O)cc1)C(=O)N[C@@H](CS)C(=O)N[C@@H](CC(N)=O)C(=O)N[C@@H](CCCN=C(N)N)C(=O)N[C@@H](CCCN=C(N)N)C(=O)N[C@H](C(=O)NCC(=O)N[C@@H](CCCCN)C(=O)N[C@@H](CS)C(=O)N[C@@H](CCC(N)=O)C(=O)N[C@@H](CCCN=C(N)N)C(=O)N[C@@H](CCSC)C(=O)O)[C@@H](C)O` [GSKKPVPIIYCNRRTGKCQRM]: the MIC in assay [1] stood at 6.57 µM (≈ 16 µg/mL); in assay [2] it was 0.103 µM (≈ 0.25 µg/mL); in [3], 0.41 µM (≈ 1 µg/mL); in [4], 0.41 µM (≈ 1 µg/mL); against Escherichia coli, 0.41 µM (≈ 1 µg/mL); in assay [5], 0.41 µM (≈ 1 µg/mL). The MIC in assay [6] was 105 µM (≈ 256 µg/mL); in assay [7], 0.41 µM (≈ 1 µg/mL); in [8] it was 0.41 µM (≈ 1 µg/mL); in assay [9], 6.57 µM (≈ 16 µg/mL).

For the molecule `CC[C@H](C)[C@H](NC(=O)[C@H](Cc1c[nH]c2ccccc12)NC(=O)[C@H](CCCN=C(N)N)NC(=O)[C@H](Cc1c[nH]c2ccccc12)NC(=O)[C@H](Cc1c[nH]c2ccccc12)NC(=O)[C@H](CCCCN)NC(=O)[C@@H](N)CCCN=C(N)N)C(=O)N[C@@H](CCCCN)C(=O)N[C@@H](Cc1c[nH]c2ccccc12)C(N)=O` [RKWWRWIKW], the MIC in assay [10] was 5 µM (≈ 7.22 µg/mL); in the assay with Bacillus subtilis C626, 20 µM (≈ 28.9 µg/mL); in the assay with Escherichia coli O157:H7, 1.25 µM (≈ 1.8 µg/mL); in [11], 2.5 µM (≈ 3.61 µg/mL).

For the molecule `CC[C@H](C)[C@H](N)C(=O)N[C@@H](CC(N)=O)C(=O)N[C@@H](Cc1c[nH]c2ccccc12)C(=O)N[C@@H](CCCCN)C(=O)N[C@@H](C)C(=O)N[C@@H](CC(C)C)C(=O)N[C@@H](CC(C)C)C(=O)N[C@@H](CC(=O)O)C(=O)N[C@@H](C)C(=O)N[C@@H](C)C(=O)N[C@@H](CCCCN)C(=O)N[C@@H](CCCCN)C(=O)N[C@H](C(=O)N[C@@H](CC(C)C)C(=O)O)C(C)C` [INWKALLDAAKKVL], the MIC in assay [12] is at least 158 µM; in assay [13] it was at least 39.5 µM; in assay [14], at least 39.5 µM; in assay [15], at least 316 µM.

As for `CC[C@H](C)[C@H](NC(=O)[C@H](Cc1c[nH]c2ccccc12)NC(=O)[C@@H](NC(=O)[C@H](Cc1c[nH]c2ccccc12)NC(=O)[C@@H]1CCCN1C(=O)[C@@H](NC(=O)[C@H](C)N)[C@@H](C)CC)[C@@H](C)CC)C(=O)N[C@@H](Cc1c[nH]c2ccccc12)C(=O)N[C@@H](CCCN=C(N)N)C(=O)N[C@@H](CC(C)C)C(=O)N[C@@H](CC(C)C)C(=O)N[C@@H](CCCN=C(N)N)C(=O)N[C@@H](CCCCN)C(=O)NCC(=O)O` [AIPWIWIWRLLRKG], the MIC in [1] was 0.4 µM (≈ 0.723 µg/mL); in assay [16] it was 15 µM (≈ 27.1 µg/mL); in assay [17] it was 12.5 µM (≈ 22.6 µg/mL); in [18], 6 µM (≈ 10.8 µg/mL); in assay [19] it was 12.5 µM (≈ 22.6 µg/mL); in assay [20], 0.23 µM (≈ 0.416 µg/mL). Also, the MIC came out at 7.5 µM (≈ 13.6 µg/mL) with Escherichia coli D31; 6 µM (≈ 10.8 µg/mL) in assay [21]; 0.4 µM (≈ 0.723 µg/mL) in [6]; 0.4 µM (≈ 0.723 µg/mL) in assay [22]; 12.5 µM (≈ 22.6 µg/mL) in assay [23]; 15 µM (≈ 27.1 µg/mL) in assay [24]. Besides, the MIC in assay [25] was 3.75 µM (≈ 6.78 µg/mL); in assay [26] it was above 15 µM; in assay [27] it was 3 µM (≈ 5.42 µg/mL); in [28] it was 3.75 µM (≈ 6.78 µg/mL).

With `CC[C@H](C)[C@H](NC(=O)[C@H](CC(C)C)NC(=O)[C@H](CO)NC(=O)[C@H](Cc1ccccc1)NC(=O)[C@H](CC(C)C)NC(=O)[C@@H](N)CO)C(=O)N[C@@H](CCCCN)C(=O)N[C@@H](C)C(=O)NCC(=O)N[C@@H](C)C(=O)N[C@@H](CCCCN)C(=O)N[C@@H](Cc1ccccc1)C(=O)N[C@@H](CC(C)C)C(=O)NCC(=O)N[C@@H](CCCCN)C(=O)N[C@@H](CC(N)=O)C(=O)N[C@@H](CC(C)C)C(=O)N[C@@H](CC(C)C)C(=O)N[C@@H](CCCCN)C(=O)N[C@@H](CCC(N)=O)C(=O)NCC(=O)N[C@@H](C)C(=O)N[C@@H](CCC(N)=O)C(=O)N[C@@H](Cc1ccc(O)cc1)C(=O)N[C@@H](C)C(=O)N[C@@H](C)C(=O)N[C@H]1CSSC[C@@H](C(=O)O)NC(=O)[C@H](CCC(=O)O)NC(=O)[C@H](CCCCN)NC(=O)[C@H](CO)NC(=O)[C@H](C(C)C)NC(=O)[C@H](CCCCN)NC1=O` [SLFSLIKAGAKFLGKNLLKQGAQYAACKVSKEC], the minimum inhibitory concentration (MIC) in assay [29] worked out at 1.78 µM (≈ 6.25 µg/mL); in assay [16], 28.4 µM (≈ 99.9 µg/mL); in assay [30] it was 3.56 µM (≈ 12.5 µg/mL); in [31] it was 1.78 µM (≈ 6.25 µg/mL); against Escherichia coli NIHJ it was 3.56 µM (≈ 12.5 µg/mL); in assay [32], 0.444 µM (≈ 1.56 µg/mL).

As to `CC[C@H](C)[C@H](NC(=O)[C@H](CO)NC(=O)[C@H](CCCN=C(N)N)NC(=O)CNC(=O)[C@H](CCC(=O)O)NC(=O)[C@@H](N)CC(C)C)C(=O)N[C@@H](CO)C(=O)N[C@@H](CCCN=C(N)N)C(=O)N[C@H](C(=O)N[C@@H](CC(=O)O)C(=O)N[C@@H](CCC(=O)O)C(=O)N[C@@H](CC(C)C)C(=O)N[C@H](C(=O)N[C@@H](CCC(N)=O)C(=O)N[C@@H](CCC(N)=O)C(=O)N[C@@H](CCCN=C(N)N)C(=O)N[C@@H](CCC(N)=O)C(=O)N[C@@H](CCC(=O)O)C(=O)N[C@@H](CCCCN)C(=O)N[C@@H](CC(=O)O)C(=O)O)[C@@H](C)CC)[C@@H](C)CC` [LEGRSISRIDELIQQRQEKD], in assay [33], the MIC was 2.04 µM (≈ 4.92 µg/mL).
